In patent publication US11421280B2 (DENOVO BIOPHARMA LLC, priority 2016, dated 2022):
Entries after “also recorded” stand apart in the source; their conditions may differ.

Key:
[1] = tested on: VEGF induced angiogenesis; settings: oral dosing, plasma exposure similar to human clinical trials; cited from earlier work
[2] = tested on: human cancer xenografts (colorectal carcinomas, glioblastomas, diffuse large B-Cell lymphomas, Waldenstrom's macroglobulinemia, multiple myeloma); settings: single-agent treatment; cited from earlier work
[3] = tested on: other PKC isoforms (α, γ, ε); settings: Graff et al. 2005; read-out: IC50s other PKC isoforms (α, γ, ε); cited from earlier work
DLBCL patients [4] = assay: Prelude phase 3 DLBCL maintenance trial, survival analysis by chromaturia and rs309605 genotype; assay type: in vivo, human
Source text: Prelude trial is a multicenter, phase 3, randomized, double-blind, placebo-controlled trial enrolled patients at high risk of recurrence following rituximab-cyclophosphamide, doxorubicin, vincristine, and prednisone (R-CHOP). […] Primary endpoint was DFS 3 years after the last patient entered treatment (FIG. 1A).
Unlike most oncology biomarker studies focusing on mutations or target protein overexpression in tumor cells, germline genetic polymorphisms also contribute to the various responses to the same drug in different patients.
For both rs309605 and rs309604, allele A represents T and allele B represents C. […] A p-value smaller than 5×10^−8 is usually considered the threshold for genome-wide significance.
To examine whether rs309605 is merely a prognostic biomarker, DNA samples from 238 patients from placebo control group were genotyped at rs309605 using the Taqman SNP assays.

GBM patients = assay: S008 GBM phase 1/2 first line trial; assay type: in vivo, human
Source text: FIG. 4A is a Kaplan-Meier plot showing time to overall survival in the AA+AB group and BB group. FIG. 4B is a Kaplan-Meier plot showing time to overall survival in the chromaturia group and non-chromaturia group.
The DNA samples from blood of GBM patients in S008 trials were used to genotype rs309605 by Taqman assay.

DLBCL patients [5] = assay: S028 phase 2 DLBCL 1st line trial, enzastaurin in combination with R-CHOP; assay type: in vivo, human
Procedure: Thus, subgroup analysis was conducted using both IPI and rs309605 and rs309604.

[6] = tested on: cultured cancer cells (colon, NSCLC, glioblastoma, diffuse large B-cell and cutaneous T-cell lymphoma, multiple myeloma, Waldenstrom's macroglobulinemia); settings: cited from earlier work
[7] = enzastaurin arm, rs309605/rs309604
[8] = enzastaurin arm, rs309605/rs309604, p-value 5.75×10^−9

## Cn1cc(C2=C(c3cn(C4CCN(Cc5ccccn5)CC4)c4ccccc34)C(=O)NC2=O)c2ccccc21 [enzastaurin, 3-(1-methyl-1H-indol-3-yl)-4-[1-[1-(pyridin-2-ylmethyl)piperidin-4-yl]-1H-indol-3-yl]-1H-pyrrole-2,5-dione]
[1]
  VEGF induced angiogenesis: suppresses VEGF induced angiogenesis
[2]
  growth of human cancer xenografts: suppresses growth of multiple human cancer xenografts
[3]
  IC50: 40 to 100 nM
DLBCL patients [4]; 177 enzastaurin treated patients without chromaturia
  overall survival, AA+AB vs BB genotype in patients without chromaturia: no significant difference in overall survival
DLBCL patients [4]; AA + AB (rs309605), Chrom
  Event per 1000 person-month: 0.65 per 1000 person-month
DLBCL patients [4]; AA + AB (rs309605), Chrom, N 82
  Number of events (OS): 3
DLBCL patients [4]; AA + AB (rs309605), Non-Chrom
  Event per 1000 person-month: 3.69 per 1000 person-month
DLBCL patients [4]; AA + AB (rs309605), Non-Chrom, N 158
  Number of events (OS): 27
DLBCL patients [4]; All types (AA, AB, BB), Chrom
  Event per 1000 person-month: 1.96 per 1000 person-month
DLBCL patients [4]; All types (AA, AB, BB), Chrom, N 95
  Number of events (OS): 10
DLBCL patients [4]; All types (AA, AB, BB), Non-Chrom
  Event per 1000 person-month: 4.83 per 1000 person-month
DLBCL patients [4]; All types (AA, AB, BB), Non-Chrom, N 187
  Number of events (OS): 41
DLBCL patients [4]; [7]
  number of patients who survived, AA+AB genotype: 209
  number of patients who survived, BB genotype: 22
DLBCL patients [4]; [8]
  number of patients who had events, AA+AB genotype: 31
  number of patients who had events, BB genotype: 22
DLBCL patients [4]; enzastaurin treated arm, rs309605 and rs309604
  overall survival, AA+AB genotype vs BB genotype: significantly improved survival; also recorded: significant longer overall survival
DLBCL patients [4]; interaction of genotype and chromaturia, p value=0.017
  overall survival, AA+AB genotype at rs309605 with chromaturia: best overall survival
DLBCL patients [4]; overall patient population, N=504 vs N=254, 500 mg daily oral
  overall survival / efficacy, enzastaurin arm vs placebo arm: failed to demonstrate statistically significant efficacy; also recorded: no significant difference
GBM patients
  overall survival, AA or AB genotype vs BB genotype at rs309605: better overall survival
  survival, chromaturia vs without chromaturia: significant improved survival
DLBCL patients [5]; enzastaurin treatment arm, with R-CHOP
  survival, AA+AB vs BB genotype at rs309605: significant better survival
DLBCL patients [5]; general patient population, with R-CHOP
  overall survival, enzastaurin arm vs control arm: no significant difference
DLBCL patients [5]; patients AA+AB at rs309605 and rs309604 and IPI>2
  Progression Free (PFS) survival and overall survival, enzastaurin arm: superior efficacy
[6]; clinically relevant concentrations, suppresses phosphorylation of AKT, mTOR, p70S6K, S6, 4EBP1, CREB, GSK3β
  intracellular signaling through the PKC and PI3K/AKT pathways: blocks intracellular signaling through the PKC and PI3K/AKT pathways
[6]; cultured cancer cells
  tumor cell apoptosis: induces tumor cell apoptosis
  tumor cell proliferation: inhibits tumor cell proliferation
